Experimental data as given in PubChem BioAssay AID264 (DTP/NCI, 2004).
Several values for one entry are separate records, joined by “and”; a condition that tells them apart may be missing. Identical values can stand only once. Results filed as inconclusive are left out.

System: nude mice, LX-1 lung xenograft intrarenal, tumor weight T/C
Test: NCI In Vivo Anticancer Drug Screen. Data for tumor model Human Lung LX-1 Xenograft (intrarenal inoculation) in NU/NU Swiss (nude) mice
Settings: endpoint: mean tumor weight change, higher = larger tumour
Procedure, shortened: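 Compound-treated mice carrying transplanted tumors were compared with vehicle-treated controls. Tumor size was the measured end point, and the value is the treated-group measurement divided by the control-group measurement (T/C).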

[1] = dose: 25.0 mg/kg/injection, schedule: Q01DX010 (sc), vehicle: Klucel (hydroxypropylcellulose) (HPC)
[2] = dose: 50.0 mg/kg/injection, schedule: Q01DX010 (sc), vehicle: Klucel (hydroxypropylcellulose) (HPC)
[3] = dose: 100.0 mg/kg/injection, schedule: Q01DX010 (sc), vehicle: Klucel (hydroxypropylcellulose) (HPC)
[4] = dose: 200.0 mg/kg/injection, schedule: Q01DX010 (sc), vehicle: Klucel (hydroxypropylcellulose) (HPC)
[5] = dose: 50.0 mg/kg/injection, schedule: Q01DX010 (sc), vehicle: saline with Tween-80
[6] = dose: 100.0 mg/kg/injection, schedule: Q01DX010 (sc), vehicle: saline with Tween-80
[7] = dose: 200.0 mg/kg/injection, schedule: Q01DX010 (sc), vehicle: saline with Tween-80
[8] = dose: 400.0 mg/kg/injection, schedule: Q01DX010 (sc), vehicle: saline with Tween-80
[9] = dose: 75.0 mg/kg/injection, schedule: Q04DX003 (sc), vehicle: saline with Tween-80
[10] = dose: 300.0 mg/kg/injection, schedule: Q04DX003 (sc), vehicle: saline with Tween-80
[11] = dose: 600.0 mg/kg/injection, schedule: Q04DX003 (sc), vehicle: saline with Tween-80
[12] = dose: 4.0 mg/kg/injection, schedule: Q04DX003 (sc), vehicle: saline with Tween-80
[13] = dose: 8.0 mg/kg/injection, schedule: Q04DX003 (sc), vehicle: saline with Tween-80
[14] = dose: 16.0 mg/kg/injection, schedule: Q04DX003 (sc), vehicle: saline with Tween-80
[15] = dose: 1200.0 mg/kg/injection, schedule: Q04DX003 (sc), vehicle: saline with Tween-80
[16] = dose: 2400.0 mg/kg/injection, schedule: Q04DX003 (sc), vehicle: saline with Tween-80

In the case of `Nc1ccn(C2OC(CO)C(O)C2O)c(=O)n1` (centres undefined), the T/C (dose: 31.25 mg/kg/injection, schedule: Q01DX010 (sc), vehicle: water) is reported as 73 % of control and 95 % of control, the T/C (dose: 600.0 mg/kg/injection, schedule: Q04DX003 (sc), vehicle: water) is reported as 47 % of control and the T/C (dose: 819.2 mg/kg/injection, schedule: Q04DX003 (sc), vehicle: water) is reported as 46 % of control. The T/C (dose: 1024.0 mg/kg/injection, schedule: Q04DX003 (sc), vehicle: water) was 61 % of control, the T/C (dose: 1200.0 mg/kg/injection, schedule: Q04DX003 (sc), vehicle: water) was 34 % of control and the T/C (dose: 1280.0 mg/kg/injection, schedule: Q04DX003 (sc), vehicle: water) was 23 % of control. For the same compound, the T/C (dose: 1600.0 mg/kg/injection, schedule: Q04DX003 (sc), vehicle: water) was 20 % of control.
With `CCCC(=O)OCc1cc(=O)n(C)c2c3c4c(cc12)c(C)cc(=O)n4CO3` the T/C [1] was 89 % of control, the T/C [2] was 70 % of control and the T/C [3] was 48 % of control. The T/C [4] was 63 % of control.
With `CN(C)c1ccc(C(=C2C=CC(=[N+](C)C)C=C2)c2ccc(N(C)C)cc2)cc1` (tested in a mixture with another compound) the T/C (dose: 7.5 mg/kg/injection, schedule: Q04DX003 (sc), vehicle: saline with Tween-80) was 76 % of control, the T/C (dose: 15.0 mg/kg/injection, schedule: Q04DX003 (sc), vehicle: saline with Tween-80) was 59 % of control and the T/C (dose: 30.0 mg/kg/injection, schedule: Q04DX003 (sc), vehicle: saline with Tween-80) was 98 % of control. The T/C (dose: 60.0 mg/kg/injection, schedule: Q04DX003 (sc), vehicle: saline with Tween-80) was 65 % of control.
For `O=CN(SSN(C=O)C1CCCCC1)C1CCCCC1`, the T/C [5] was 395 % of control, the T/C [6] was 104 % of control and the T/C [7] was 234 % of control. For the same compound, the T/C [8] was 97 % of control and 122 % of control, the T/C (dose: 800.0 mg/kg/injection, schedule: Q01DX010 (sc), vehicle: saline with Tween-80) was 48 % of control and the T/C (dose: 1600.0 mg/kg/injection, schedule: Q01DX010 (sc), vehicle: saline with Tween-80) was 54 % of control.
In the case of `O=c1[nH]c(=O)n(C2CC(O)C(CO)O2)cc1I` (centres undefined), the T/C [5] is reported as 71 % of control.
With `CCC1=C[C@H]2CN(CCc3c([nH]c4ccccc34)[C@@](C(=O)OC)(c3cc4c(cc3OC)N(C)[C@H]3[C@@](O)(C(=O)OC)[C@H](OC(C)=O)[C@]5(CC)C=CCN6CC[C@]43[C@@H]65)C2)C1` the T/C (dose: 6.0 mg/kg/injection, schedule: Q04DX003 (sc), vehicle: water) was 106 % of control and the T/C (dose: 12.0 mg/kg/injection, schedule: Q04DX003 (sc), vehicle: water) was 89 % of control.
`C[CH2][Ge]([CH2]C)[CH2]C.C[CH2][Ge]([CH2]C)[CH2]C.C[CH2][Ge]([CH2]C)[O][Ge]([CH2]C)[CH2]C` was tested, and the T/C [9] was 91 % of control, the T/C (dose: 150.0 mg/kg/injection, schedule: Q04DX003 (sc), vehicle: saline with Tween-80) was 98 % of control and the T/C [10] was 63 % of control. The T/C [11] was 114 % of control.
With `COc1cccc2c1C(=O)c1c(O)c3c(c(O)c1C2=O)C[C@@](O)(C(C)=O)C[C@@H]3OC1CC(N(Cc2ccccc2)Cc2ccccc2)C(O)C(C)O1` (some centres undefined) the T/C (dose: 25.0 mg/kg/injection, schedule: Q01DX010 (sc), vehicle: water) was 64 % of control.
`CCCCC1CCCCCCc2[nH]c(/C=C3\N=C(c4ccc[nH]4)C=C3OC)cc21` (centres undefined) was tested, and the T/C [12] was 61 % of control, the T/C [13] was 66 % of control and the T/C [14] was 55 % of control.
`CCCC(=O)Oc1ccc(/C=N/NC(N)=S)nc1` was tested, and the T/C [5] was 91 % of control, the T/C [6] was 110 % of control and the T/C [7] was 40 % of control. For the same compound, the T/C [8] was 15 % of control.
For `CCOC(=O)C(N)CSC(=O)NC` (centres undefined), the T/C (dose: 50.0 mg/kg/injection, schedule: Q04DX003 (sc), vehicle: saline) was 165 % of control and the T/C (dose: 400.0 mg/kg/injection, schedule: Q04DX003 (sc), vehicle: saline) was 94 % of control.
With `COc1cc(C2c3cc4c(cc3C(O)C(CO)C2CO)OCO4)cc(OC)c1OC` (centres undefined) the T/C [10] was 103 % of control, the T/C [11] was 95 % of control and the T/C [15] was 90 % of control. For the same compound, the T/C [16] was 38 % of control.
In the case of `CC(=O)OCC1OC(OC2=C(CC=C(C)C)C(=O)c3ccccc3C2=O)C(OC(C)=O)C(OC(C)=O)C1OC(C)=O` (centres undefined), the T/C (dose: 12.5 mg/kg/injection, schedule: Q01DX010 (sc), vehicle: Klucel (hydroxypropylcellulose) (HPC)) is reported as 61 % of control, the T/C [1] is reported as 119 % of control and the T/C [2] is reported as 97 % of control. The T/C [3] was 83 % of control.
`N=C(N)Sc1ccccn1` was tested, and the T/C (dose: 1.25 mg/kg/injection, schedule: Q01DX010 (sc), vehicle: saline) was 83 % of control, the T/C (dose: 2.5 mg/kg/injection, schedule: Q01DX010 (sc), vehicle: saline) was 72 % of control and the T/C (dose: 5.0 mg/kg/injection, schedule: Q01DX010 (sc), vehicle: saline) was 52 % of control. The T/C (dose: 10.0 mg/kg/injection, schedule: Q01DX010 (sc), vehicle: saline) was 29 % of control, the T/C (dose: 25.0 mg/kg/injection, schedule: Q01DX010 (sc), vehicle: saline) was 158 % of control and the T/C (dose: 50.0 mg/kg/injection, schedule: Q01DX010 (sc), vehicle: saline) was 167 % of control.
With `CCCCCCCCSC1=C(Cl)C(=O)C(OC)=C(OC)C1=O` the T/C (dose: 18.0 mg/kg/injection, schedule: Q04DX003 (sc), vehicle: saline with Tween-80) was 82 % of control, the T/C (dose: 36.0 mg/kg/injection, schedule: Q04DX003 (sc), vehicle: saline with Tween-80) was 81 % of control and the T/C (dose: 144.0 mg/kg/injection, schedule: Q04DX003 (sc), vehicle: saline with Tween-80) was 57 % of control.
For `Cc1ccc(S(=O)(=O)N/N=C/C(Br)=C(/Br)C(=O)O)cc1`, the T/C (dose: 150.0 mg/kg/injection, schedule: Q04DX003 (sc), vehicle: Klucel (hydroxypropylcellulose) (HPC)) was 66 % of control, the T/C (dose: 300.0 mg/kg/injection, schedule: Q04DX003 (sc), vehicle: Klucel (hydroxypropylcellulose) (HPC)) was 58 % of control and the T/C (dose: 600.0 mg/kg/injection, schedule: Q04DX003 (sc), vehicle: Klucel (hydroxypropylcellulose) (HPC)) was 43 % of control.
`Cc1c(N)nc(C(CC(N)=O)NCC(N)C(N)=O)nc1C(=O)NC(C(=O)NC(C)C(O)C(C)C(=O)NC(C(=O)NCCc1nc(-c2nc(C(=O)NCCCNC(C)c3ccccc3)cs2)cs1)C(C)O)C(OC1OC(CO)C(O)C(O)C1OC1OC(CO)C(O)C(OC(N)=O)C1O)c1cnc[nH]1` (centres undefined) was tested, and the T/C (dose: 2.0 mg/kg/injection, schedule: Q01DX010 (sc), vehicle: saline) was 53 % of control, the T/C (dose: 4.0 mg/kg/injection, schedule: Q01DX010 (sc), vehicle: saline) was 32 % of control and the T/C (dose: 16.0 mg/kg/injection, schedule: Q01DX010 (sc), vehicle: saline) was 22 % of control and 28 % of control. For the same compound, the T/C (dose: 32.0 mg/kg/injection, schedule: Q01DX010 (sc), vehicle: saline) was 39 % of control.
For `COC1C(O)C(C)OC(OC2C(Oc3cccc4c(O)c5c(=O)oc6ccc(C)c7c(=O)oc(c34)c5c67)OC(C)C(O)C2O)C1O` (centres undefined), the T/C [2] was 84 % of control, the T/C [3] was 63 % of control and the T/C [4] was 54 % of control. For the same compound, the T/C (dose: 400.0 mg/kg/injection, schedule: Q01DX010 (sc), vehicle: Klucel (hydroxypropylcellulose) (HPC)) was 58 % of control.
With `COC1(OC)C2C=CC1CC2` the T/C [10] was 105 % of control, the T/C [11] was 150 % of control and the T/C [15] was 104 % of control.
In the case of `COc1ccc(CC2C(=O)NC(C)C(=O)N(C)C3Cc4ccc(cc4)Oc4cc(ccc4O)CC(C(=O)NC(C)C(=O)NC(C)C(=O)N2C)N(C)C3=O)cc1` (centres undefined), the T/C [12] is reported as 61 % of control, the T/C [13] is reported as 25 % of control and the T/C [14] is reported as 34 % of control. The T/C (dose: 32.0 mg/kg/injection, schedule: Q04DX003 (sc), vehicle: saline with Tween-80) was 27 % of control.
`CCc1nc(N)nc(N)c1-c1ccc(Cl)c([N+](=O)[O-])c1` was tested, and the T/C (dose: 9.38 mg/kg/injection, schedule: Q04DX003 (sc), vehicle: saline with Tween-80) was 99 % of control, the T/C (dose: 18.75 mg/kg/injection, schedule: Q04DX003 (sc), vehicle: saline with Tween-80) was 108 % of control and the T/C (dose: 37.5 mg/kg/injection, schedule: Q04DX003 (sc), vehicle: saline with Tween-80) was 99 % of control. The T/C [9] was 119 % of control.
`CCC(CC)COC(=O)c1ccccc1C(=O)OCC(CC)CC` was tested, and the T/C [10] was 56 % of control, the T/C [11] was 71 % of control and the T/C [15] was 64 % of control. The T/C [16] was 73 % of control.
In the case of `N=C(N)CCCCCCCCC(=N)N`, the T/C (dose: 4.69 mg/kg/injection, schedule: Q04DX003 (sc), vehicle: saline) is reported as 91 % of control, the T/C (dose: 9.38 mg/kg/injection, schedule: Q04DX003 (sc), vehicle: saline) is reported as 92 % of control and the T/C (dose: 18.75 mg/kg/injection, schedule: Q04DX003 (sc), vehicle: saline) is reported as 94 % of control.
